# Reference: patent publication US7968577B2 (Bristol-Myers Squibb Company, priority 2006, dated 2011)
# Biological target: T1, human glucocorticoid receptor (Homo sapiens, UniProt P04150)
# T1 construct: purified human recombinant full-length glucocorticoid receptor; purchased Invitrogen Part #2893
# T1 sequence (P04150 1-777): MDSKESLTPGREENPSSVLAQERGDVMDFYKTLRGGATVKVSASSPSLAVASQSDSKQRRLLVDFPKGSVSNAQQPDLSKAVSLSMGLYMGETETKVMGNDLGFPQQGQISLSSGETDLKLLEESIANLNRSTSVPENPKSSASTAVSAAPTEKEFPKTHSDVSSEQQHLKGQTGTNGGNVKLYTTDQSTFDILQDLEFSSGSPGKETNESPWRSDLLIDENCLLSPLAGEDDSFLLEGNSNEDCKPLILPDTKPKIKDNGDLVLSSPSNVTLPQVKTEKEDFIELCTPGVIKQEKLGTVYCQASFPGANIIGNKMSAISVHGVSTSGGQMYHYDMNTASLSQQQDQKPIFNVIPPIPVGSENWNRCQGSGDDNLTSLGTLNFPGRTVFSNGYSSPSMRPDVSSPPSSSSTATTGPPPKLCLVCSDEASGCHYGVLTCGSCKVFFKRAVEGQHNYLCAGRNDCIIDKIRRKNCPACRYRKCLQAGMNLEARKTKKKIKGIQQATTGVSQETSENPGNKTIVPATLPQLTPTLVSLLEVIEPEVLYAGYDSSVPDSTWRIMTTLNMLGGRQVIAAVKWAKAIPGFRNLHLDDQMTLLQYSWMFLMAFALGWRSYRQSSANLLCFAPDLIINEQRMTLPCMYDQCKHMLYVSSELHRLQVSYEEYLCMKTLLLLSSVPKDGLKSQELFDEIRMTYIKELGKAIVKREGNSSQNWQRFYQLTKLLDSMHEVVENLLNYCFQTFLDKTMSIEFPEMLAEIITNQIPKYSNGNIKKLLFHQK
# Assay: Glucocorticoid Receptor Binding Assay (I), fluorescence polarization competitor kit (Fluormone GS Red)
# Conditions: GR Binding Assay (I)
# Protocol: Glucocorticoid Receptor Binding Assay (I)^a
# In order to assess the affinity of test compounds for the human glucocorticoid receptor, a commercially available kit was used (Glucocorticoid Receptor Competitor Assay Kit, Invitrogen Part #2893). Briefly, purified human recombinant full-length glucocorticoid receptor (2 nM) was mixed with fluorescently labeled glucocorticoid (1 nM Fluormone GS Red) in the presence or absence of test compound. After two hour incubation at room temperature in the dark, the fluorescence polarization (FP) of the samples was measured. […] Test compounds were analyzed in the concentration range from 8.5 E-05 μM to 5 μM.
row,SMILES,Ki
1,"CC(C)(C(=O)Nc1nncs1)C(c1ccccc1)c1ccc(-c2ccc(O)cc2)cc1 (stereo not drawn) [Example 412, 3-(4′-hydroxy-4-biphenylyl)-2,2-dimethyl-3-phenyl-N-1,3,4-thiadiazol-2-ylpropanamide]",16.5 nM
2,"CC(=O)c1cccc(-c2ccc(C(c3ccccc3)C(C)(C)C(=O)Nc3nncs3)cc2)c1 (stereo not drawn) [Example 413, 3-(3′-acetyl-4-biphenylyl)-2,2-dimethyl-3-phenyl-N-1,3,4-thiadiazol-2-ylpropanamide]",110 nM
3,"CC(=O)Nc1ccc(-c2ccc(C(c3ccccc3)C(C)(C)C(=O)Nc3nncs3)cc2)cc1 (stereo not drawn) [Example 414, 3-(4′-acetamido-4-biphenylyl)-2,2-dimethyl-3-phenyl-N-1,3,4-thiadiazol-2-ylpropanamide]",9.27 nM
4,"CC(C)(C(=O)Nc1nncs1)C(c1ccccc1)c1ccc(-c2ccc3c(c2)CCO3)cc1 (stereo not drawn) [Example 415, 3-(4-(2,3-dihydro-1-benzofuran-5-yl)phenyl)-2,2-dimethyl-3-phenyl-N-1,3,4-thiadiazol-2-ylpropanamide]",6.08 nM
5,"CCCCOc1ccc(-c2ccc(C(c3ccccc3)C(C)(C)C(=O)Nc3nncs3)cc2)cc1 (stereo not drawn) [Example 416, 3-(4′-butoxy-4-biphenylyl)-2,2-dimethyl-3-phenyl-N-1,3,4-thiadiazol-2-ylpropanamide]",42.5 nM
6,"CC(C)(C)c1ccc(-c2ccc(C(c3ccccc3)C(C)(C)C(=O)Nc3nncs3)cc2)cc1 (stereo not drawn) [Example 417, 3-(4′-tert-butyl-4-biphenylyl)-2,2-dimethyl-3-phenyl-N-1,3,4-thiadiazol-2-ylpropanamide]",52.9 nM
7,"CCCCc1ccc(-c2ccc(C(c3ccccc3)C(C)(C)C(=O)Nc3nncs3)cc2)cc1 (stereo not drawn) [Example 418, 3-(4′-butyl-4-biphenylyl)-2,2-dimethyl-3-phenyl-N-1,3,4-thiadiazol-2-ylpropanamide]",26.5 nM
8,"CCOc1ccc(-c2ccc(C(c3ccccc3)C(C)(C)C(=O)Nc3nncs3)cc2)cc1 (stereo not drawn) [Example 419, 3-(4′-ethoxy-4-biphenylyl)-2,2-dimethyl-3-phenyl-N-1,3,4-thiadiazol-2-ylpropanamide]",5.53 nM
9,"COc1ccc(-c2ccc(C(c3ccccc3)C(C)(C)C(=O)Nc3nncs3)cc2)cc1F (stereo not drawn) [Example 420, 3-(3′-fluoro-4′-methoxy-4-biphenylyl)-2,2-dimethyl-3-phenyl-N-1,3,4-thiadiazol-2-ylpropanamide]",13.3 nM
10,"CC(C)(C(=O)Nc1nncs1)C(c1ccccc1)c1ccc(-c2ccc(CO)cc2)cc1 (stereo not drawn) [Example 421, 3-(4′-(hydroxymethyl)-4-biphenylyl)-2,2-dimethyl-3-phenyl-N-1,3,4-thiadiazol-2-ylpropanamide]",5.72 nM
11,"CN1CCN(C(=O)c2ccc(-c3ccc(C(c4ccccc4)C(C)(C)C(=O)Nc4nncs4)cc3)cc2)CC1 (stereo not drawn) [Example 426, 2,2-dimethyl-3-(4′-((4-methyl-1-piperazinyl)carbonyl)-4-biphenylyl)-3-phenyl-N-1,3,4-thiadiazol-2-ylpropanamide]",3.68 nM
12,"CC(C)CC(c1ccc(-c2ccc(C(=O)N3CCOCC3)cc2)cc1)C(C)(C)C(=O)Nc1nncs1 (stereo not drawn) [Example 427, 2,2,5-trimethyl-3-(4′-(4-morpholinylcarbonyl)-4-biphenylyl)-N-1,3,4-thiadiazol-2-ylhexanamide]",9.28 nM
13,"COCc1ccc(-c2ccc(C(CC(C)C)C(C)(C)C(=O)Nc3nncs3)cc2)cc1 (stereo not drawn) [Example 428, 3-(4′-(methoxymethyl)-4-biphenylyl)-2,2,5-trimethyl-N-1,3,4-thiadiazol-2-ylhexanamide]",17.9 nM
14,"CC(C)CC(c1ccc(-c2ccc(C(=O)NC3CC3)cc2)cc1)C(C)(C)C(=O)Nc1nncs1 (stereo not drawn) [Example 429, N-cyclopropyl-4′-(1-(1,1-dimethyl-2-oxo-2-(1,3,4-thiadiazol-2-ylamino)ethyl)-3-methylbutyl)-4-biphenylcarboxamide]",31 nM
15,"CCOc1ccc(-c2ccc(C(CC(C)C)C(C)(C)C(=O)Nc3nncs3)cc2)cc1 (stereo not drawn) [Example 430, 3-(4′-ethoxy-4-biphenylyl)-2,2,5-trimethyl-N-1,3,4-thiadiazol-2-ylhexanamide]",4.87 nM
